The results in this text go back to patent US7432260B2, “Pyrimidine compounds” (Cyclacel Limted, priority 2002, dated 2008).

For assay [1], the target named is CDK4/cyclin D1 (Homo sapiens, UniProt P11802). The experiment in a line: Kinase assay CDK4/cyclin D1. It counts as biochemical. The settings on record: Table 2; read-out: Kinase Inhibition IC50 CDK4 cyclin D1. As to the method: (§1) Kinase assays. […] This was achieved by measurement of incorporation of radioactive phosphate from ATP into appropriate polypeptide substrates. Recombinant protein kinases and kinase complexes were produced or obtained commercially. Assays were performed using 96-well plates and appropriate assay buffers (typically 25 mM β-glycerophosphate, 20 mM MOPS, 5 mM EGTA, 1 mM DTT, 1 mM […], pH 7.4), into which were added 2-4 μg of active enzyme with appropriate substrates. The reactions were initiated by addition of Mg/ATP mix (15 mM MgCl2+100 μM ATP with 30-50 kBq per well of [γ-^32P]-ATP) and mixtures incubated as required at 30° C. Reactions were stopped on ice, followed by filtration through p81 filterplates or GF/C filterplates (Whatman Polyfiltronics, Kent, UK). After washing 3 times with 75 mM aq orthophosphoric acid, plates were dried, scintillant added and incorporated radioactivity measured in a scintillation counter (TopCount, Packard Instruments, Pangbourne, Berks, UK). Compounds for kinase assay were made-up as 10 mM stocks in DMSO and diluted into 10% DMSO inrassay buffer.
CDK4/cyclin D1, sequence (P11802 whole entry): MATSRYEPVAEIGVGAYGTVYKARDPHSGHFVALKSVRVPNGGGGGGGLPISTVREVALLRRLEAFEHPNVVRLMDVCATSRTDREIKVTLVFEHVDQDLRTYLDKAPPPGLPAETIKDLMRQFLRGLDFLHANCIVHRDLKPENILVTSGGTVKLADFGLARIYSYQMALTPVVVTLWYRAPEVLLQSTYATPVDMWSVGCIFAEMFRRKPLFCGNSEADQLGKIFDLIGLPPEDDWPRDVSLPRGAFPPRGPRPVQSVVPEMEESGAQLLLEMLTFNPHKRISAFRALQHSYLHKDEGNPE
CDK4/cyclin D1, sequence (P24385 whole entry partner): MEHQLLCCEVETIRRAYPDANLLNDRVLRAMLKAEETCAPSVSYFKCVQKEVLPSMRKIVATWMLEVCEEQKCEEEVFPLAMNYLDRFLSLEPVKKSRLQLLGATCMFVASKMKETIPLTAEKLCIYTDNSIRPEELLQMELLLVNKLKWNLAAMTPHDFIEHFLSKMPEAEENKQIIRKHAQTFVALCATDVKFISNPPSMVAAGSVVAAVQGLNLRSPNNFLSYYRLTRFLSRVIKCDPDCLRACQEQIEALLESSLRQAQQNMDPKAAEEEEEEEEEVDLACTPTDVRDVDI

For assay [2], the target named is CDK9/cyclin T1 (Homo sapiens, UniProt P50750). The assay is described as follows: CDK9 assay. It counts as biochemical. The following applies: Table 2; read-out: Kinase Inhibition IC50 CDK9 cyclin T1. The protocol: as §1
CDK9/cyclin T1, sequence (P50750 whole entry): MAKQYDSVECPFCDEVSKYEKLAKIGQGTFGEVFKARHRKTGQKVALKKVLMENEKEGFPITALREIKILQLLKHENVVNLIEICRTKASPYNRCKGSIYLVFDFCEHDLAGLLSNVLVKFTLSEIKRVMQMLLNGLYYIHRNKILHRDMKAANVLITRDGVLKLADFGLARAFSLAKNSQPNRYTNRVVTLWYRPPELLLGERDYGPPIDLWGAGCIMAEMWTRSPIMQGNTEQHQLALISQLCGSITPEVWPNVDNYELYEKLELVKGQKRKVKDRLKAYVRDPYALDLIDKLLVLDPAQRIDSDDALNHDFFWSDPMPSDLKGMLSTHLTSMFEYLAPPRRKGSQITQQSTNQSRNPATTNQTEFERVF
CDK9/cyclin T1, sequence (O60563 whole entry partner): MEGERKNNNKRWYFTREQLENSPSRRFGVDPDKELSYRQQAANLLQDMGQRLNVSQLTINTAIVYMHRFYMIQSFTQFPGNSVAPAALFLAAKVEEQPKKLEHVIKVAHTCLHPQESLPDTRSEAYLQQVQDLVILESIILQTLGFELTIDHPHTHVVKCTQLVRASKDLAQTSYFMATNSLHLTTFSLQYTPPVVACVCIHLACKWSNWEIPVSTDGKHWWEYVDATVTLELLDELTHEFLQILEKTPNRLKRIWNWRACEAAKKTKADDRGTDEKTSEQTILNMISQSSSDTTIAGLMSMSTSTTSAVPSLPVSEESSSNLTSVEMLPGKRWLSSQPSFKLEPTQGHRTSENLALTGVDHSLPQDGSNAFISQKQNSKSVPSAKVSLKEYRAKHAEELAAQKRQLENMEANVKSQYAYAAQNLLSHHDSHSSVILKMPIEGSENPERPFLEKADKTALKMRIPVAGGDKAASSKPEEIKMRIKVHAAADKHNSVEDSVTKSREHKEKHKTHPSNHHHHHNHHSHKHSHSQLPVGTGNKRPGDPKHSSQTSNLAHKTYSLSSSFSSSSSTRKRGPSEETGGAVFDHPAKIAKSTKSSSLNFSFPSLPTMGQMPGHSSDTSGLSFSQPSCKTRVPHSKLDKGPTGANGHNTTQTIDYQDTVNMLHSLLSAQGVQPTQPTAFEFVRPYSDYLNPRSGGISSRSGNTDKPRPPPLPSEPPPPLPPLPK
(§2) CDK 7 and 9 assays. CTD peptide substrate (biotinyl-Ahx-(Tyr-Ser-Pro-Thr-Ser-Pro-Ser)4-NH2; 1-2 mg/mL) and recombinant human CDK7/cyclin H, CDK9/cyclin T1, or CDK9/cyclin K (0.5-2 μg) were incubated for 45 min at 30° C. in the presence of varying amounts of test compound in 20 mM MOPS pH 7.2, 25 mM β-glycerophosphate, 5 mM EGTA, 1 mM DTT, 1 mM sodium vanadate, 15 mM MgCl2, and 100 μM ATP (containing a trace amount of ^32PγATP) in a total volume of 25 μL in a 96-well microtiter plate. The reaction was stopped by placing the plate on ice for 2 min. Avidin (50 μg) was added to each well, and the plate was incubated at room temp for 30 min. The samples were transferred to a 96-well P81 filter plate, and washed (4×200 μL per well) with 75 mM phosphoric acid. Microscint 40 scintillation liquid (50 μL) was added to each well, and the amount of ^32P incorporation for each sample was measured using a Packard Topcount microplate scintillation counter.

Assay [3] concerns A549. The assay is described as follows: 72-h MTT cytotoxicity assay A549. It counts as cell-based. The settings on record: Homo sapiens, A549, 72 h, Table 4. As to the method: (§3) MTT cytotoxicity assay. […] Standard 72-h MTT (thiazolyl blue; 3-[4,5-dimethylthiazol-2-yl]-2,5-diphenyltetrazolium bromide) assays were performed (Haselsberger, K.; Peterson, D. C.; Thomas, D. G.; Darling, J. L. Anti Cancer Drugs 1996, 7, 331-8; Loveland, B. E.; Johns, T. G.; Mackay, I. R.; Vaillant, F.; Wang, Z. X.; Hertzog, P. J. Biochemistry International 1992, 27, 501-10). In short: cells were seeded into 96-well plates according to doubling time and incubated overnight at 37° C. Test compounds were made up in DMSO and a 1/3 dilution series prepared in 100 μL cell media, added to cells (in triplicates) and incubated for 72 ho at 37° C. MTT was made up as a stock of 5 mg/mL in cell media and filter-sterilised. Media was removed from cells followed by a wash with 200 μL PBS.
(§4) MTT solution was then added at 20 μL per well and incubated in the dark at 37° C. for 4 h. MTT solution was removed and cells again washed with 200 μL PBS. MTT dye was solubilised with 200 μL per well of DMSO with agitation.
(In general: Formazan colour is commonly taken as a measure of viable cells.)

For assay [4], the target named is CDK2/cyclin E (Homo sapiens, UniProt P24941). The experiment in a line: Kinase assay CDK2/cyclin E. It counts as biochemical. The settings on record: Table 2; read-out: Kinase Inhibition IC50 CDK2 cyclin E. The protocol: as §1
The test system of assay [5] is Saos-2. The assay is described as follows: 72-h MTT cytotoxicity assay Saos-2. It counts as cell-based. The following applies: Homo sapiens, SAOS-2, 72 h, Table 4. As to the method: as §3, §4
Assay [6] concerns HT29. The experiment in a line: 72-h MTT cytotoxicity assay HT29. It counts as cell-based. The following applies: Homo sapiens, HT-29, 72 h, Table 4. The protocol:
as §3, §4

In assay [7] the target is CDK1/cyclin B (Homo sapiens, UniProt P06493). The assay is described as follows: Kinase assay CDK1/cyclin B. It counts as biochemical. The settings on record: Table 2; read-out: Kinase Inhibition IC50 CDK1 cyclin B. As to the method: as §1
CDK1/cyclin B, sequence (P06493 whole entry): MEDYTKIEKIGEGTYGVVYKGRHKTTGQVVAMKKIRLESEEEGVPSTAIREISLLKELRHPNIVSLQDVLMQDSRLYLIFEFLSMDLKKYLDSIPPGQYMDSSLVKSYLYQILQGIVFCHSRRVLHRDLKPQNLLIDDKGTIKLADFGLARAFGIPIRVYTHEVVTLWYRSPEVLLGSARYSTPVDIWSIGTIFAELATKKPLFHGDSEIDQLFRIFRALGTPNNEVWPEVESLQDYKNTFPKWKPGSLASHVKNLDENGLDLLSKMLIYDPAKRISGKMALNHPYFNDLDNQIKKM
CDK1/cyclin B, sequence (P14635 whole entry partner): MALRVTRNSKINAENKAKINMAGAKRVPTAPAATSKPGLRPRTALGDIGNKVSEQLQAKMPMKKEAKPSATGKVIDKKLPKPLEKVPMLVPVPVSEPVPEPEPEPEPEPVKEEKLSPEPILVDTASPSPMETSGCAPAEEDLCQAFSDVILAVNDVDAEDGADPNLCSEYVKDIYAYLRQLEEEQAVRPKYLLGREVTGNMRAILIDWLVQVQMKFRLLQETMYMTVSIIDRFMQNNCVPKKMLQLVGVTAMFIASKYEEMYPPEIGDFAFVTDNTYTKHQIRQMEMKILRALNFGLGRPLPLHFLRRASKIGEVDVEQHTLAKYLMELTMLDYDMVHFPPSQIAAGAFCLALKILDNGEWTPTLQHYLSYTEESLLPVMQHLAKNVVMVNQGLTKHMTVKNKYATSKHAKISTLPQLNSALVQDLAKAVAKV
In assay [8] the target is CDK2/cyclin A (Homo sapiens, UniProt P24941). The assay is described as follows: Kinase assay CDK2/cyclin A. It counts as biochemical. The following applies: Table 2; read-out: Kinase Inhibition IC50 CDK2 cyclin A. The protocol:
as §1

In assay [9] the target is CDK7/cyclin H (Homo sapiens, UniProt P50613). The experiment in a line: CDK7 assay. The following applies: Table 2; read-out: Kinase Inhibition IC50 CDK7 cyclin H. It counts as biochemical. As to the method:
as §1, §2

Where only a bound is given, the exact number is not on record here.

CDK7/cyclin H, sequence (P50613 whole entry): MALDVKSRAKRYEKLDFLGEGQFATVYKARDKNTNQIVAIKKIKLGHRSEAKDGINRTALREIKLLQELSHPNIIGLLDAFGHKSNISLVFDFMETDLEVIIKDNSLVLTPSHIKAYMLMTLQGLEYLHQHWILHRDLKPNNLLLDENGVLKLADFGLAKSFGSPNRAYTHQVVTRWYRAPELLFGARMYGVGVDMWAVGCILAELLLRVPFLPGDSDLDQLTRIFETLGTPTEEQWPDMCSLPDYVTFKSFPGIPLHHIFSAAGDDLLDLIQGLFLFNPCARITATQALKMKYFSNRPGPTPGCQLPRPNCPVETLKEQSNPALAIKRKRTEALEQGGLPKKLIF

For orientation: IC50 means the concentration that gives 50% inhibition. Take `Cc1nc(NC(=O)CCCN)sc1-c1ccnc(Nc2cccc([N+](=O)[O-])c2)n1` [Compound 18, 4-Amino-N-{4-methyl-5-[2-(3-nitro-phenylamino)-pyrimidin-4-yl]-thiazol-2-yl}-butyramide]: the IC50 amounted to 1100 nM in assay [1]; 530 nM in assay [2]; 2500 nM in [3]; 180 nM in assay [4]; 1100 nM in assay [5]; 2400 nM in assay [6].
Regarding `Cc1nc(NC(=O)CCl)sc1-c1ccnc(Nc2cccc([N+](=O)[O-])c2)n1` [Compound 24, 2-Chloro-N-{4-methyl-5-[2-(3-nitro-phenylamino)-pyrimidin-4-yl]-thiazol-2-yl}-acetamide], the 50% inhibitory concentration (IC50) was determined as 440 nM in [1]; 5.8 nM in assay [2]; 140 nM in assay [3]; 1100 nM in assay [4]; 170 nM in [5]; 140 nM in assay [6].
`Cc1nc(NC(=O)CCNCCN2CCOCC2)sc1-c1ccnc(Nc2ccc(Cl)cc2)n1` [Compound 37, N-{5-[2-(4-Chloro-phenylamino)-pyrimidin-4-yl]-4-methyl-thiazol-2-yl}-3-(2-morpholin-4-yl-ethylamino)-propionamide]: the half-inhibitory concentration (IC50) was > 100000 nM in assay [7]; 18000 nM in [1]; 6300 nM in [2]; 35000 nM in assay [3]; 8000 nM in assay [4]; 73000 nM in assay [5]. The results for the IC50 in assay [8] and in assay [6] were 16000 nM and 15000 nM, respectively.
As to `Cc1nc(C)c(-c2ccnc(Nc3ccc(NC(=O)Cn4cncn4)cc3)n2)s1` [Compound 52, N-{4-[4-(2,4-Dimethyl-thiazol-5-yl)-pyrimidin-2-ylamino]-phenyl}-2-[1,2,4]triazol-1-yl-acetamide], the IC50 is 2500 nM in assay [7]; 180 nM in [1]; 2000 nM in [9]; 1600 nM in assay [3]; 440 nM in [4]; 1100 nM in [5]. Besides, the IC50 in [8] is 1300 nM; in assay [6], 1600 nM.
As to `Cc1nc(NC(=O)[C@@H](N)CO)sc1-c1ccnc(Nc2cccc([N+](=O)[O-])c2)n1` [Compound 14, (2S)-2-Amino-3-hydroxy-N-{4-methyl-5-[2-(3-nitro-phenylamino)-pyrimidin-4-yl]-thiazol-2-yl}-propionamide], the concentration for half-maximal inhibition (IC50) in [1] turned out to be 2200 nM; in assay [2], 340 nM; in assay [3] it was 990 nM; in assay [4], 68 nM; in [5], 1500 nM; in assay [6], 730 nM.
Regarding `CC(=O)N(C)c1ccc(Nc2nccc(-c3sc(C)nc3C)n2)cc1` [Compound 48, N-{4-[4-(2,4-Dimethyl-thiazol-5-yl)-pyrimidin-2-ylamino]-phenyl}-N-methyl-acetamide], the 50% inhibitory concentration (IC50) in assay [7] came to 12000 nM; in [1] it was 2600 nM; in assay [9], 3500 nM; in [3], 3000 nM; in assay [4], 2100 nM; in assay [5], 3800 nM. The IC50 in [8] was 1700 nM; in [6], 2600 nM.
In the case of `Cc1nc(C)c(-c2ccnc(Nc3ccc(N4CCN(CCOCCO)CC4)cc3)n2)s1` [Compound 7, [4-(2,4-Dimethyl-thiazol-5-yl)-pyrimidin-2-yl]-[4-(4′-2″-ethoxylethanolpiperazino)-phenyl]-amine], the IC50 in assay [7] was 4200 nM; in assay [1], 620 nM; in [9], 2200 nM; in assay [3], 3900 nM; in [4] it was 1800 nM; in assay [5] it was 1600 nM. Further, the IC50 was 1300 nM in assay [8] and 1600 nM in assay [6].
In the case of `Cc1nc(C)c(-c2ccnc(Nc3ccc(S(C)(=O)=O)cc3)n2)s1` [Compound 85, [4-(2,4-Dimethyl-thiazol-5-yl)-pyrimidin-2-yl]-(4-methanesulfonyl-phenyl)-amine], the IC50 was 48 nM in assay [7]; 3800 nM in [1]; 11000 nM in [9]; 28 nM in [4]; 1 nM in [8].
Regarding `COc1cccc(Nc2nccc(-c3sc(NC(=O)CCN4CCOCC4)nc3C)n2)c1` [Compound 39, N-{5-[2-(3-Methoxy-phenylamino)-pyrimidin-4-yl]-4-methyl-thiazol-2-yl}-3-morpholin-4-yl-propionamide], the IC50 in assay [7] was 11000 nM; in [1] it was 32000 nM; in assay [2] it was 15000 nM; in assay [3] it was 800 nM; in assay [4], 1200 nM; in assay [5], 950 nM. Moreover, the IC50 in [8] stood at 2700 nM; in [6], 720 nM.
Regarding `Cc1nc(NC(=O)CCBr)sc1-c1ccnc(Nc2ccc(F)cc2)n1` [Compound 20, 3-Bromo-N-{5-[2-(4-fluoro-phenylamino)-pyrimidin-4-yl]-4-methyl-thiazol-2-yl}-propionamide], the half-inhibitory concentration (IC50) in [7] was 1900 nM; in assay [1], 770 nM; in assay [2] it was 37 nM; in assay [3], 5800 nM; in assay [4], 76 nM; in assay [8], 520 nM. Also, in assay [6], the IC50 was determined as 6300 nM.
With `Cc1nc(C)c(-c2ccnc(Nc3ccc(NC(=O)CN4CCOCC4)cc3)n2)s1` [Compound 51, N-{4-[4-(2,4-Dimethyl-thiazol-5-yl)-pyrimidin-2-ylamino]-phenyl}-2-morpholin-4-yl-acetamide], the concentration for half-maximal inhibition (IC50) in [7] came out at 11000 nM; in assay [1], 400 nM; in assay [9] it was 9600 nM; in assay [3], 1900 nM; in [4], 1700 nM; in assay [5], 1100 nM. The concentration for half-maximal inhibition (IC50) in assay [8] stood at 2900 nM; in [6], 1400 nM.
Regarding `COc1ccc(Nc2nccc(-c3sc(NC(=O)CCN4CCOCC4)nc3C)n2)cc1` [Compound 38, N-{5-[2-(4-Methoxy-phenylamino)-pyrimidin-4-yl]-4-methyl-thiazol-2-yl}-3-morpholin-4-yl-propionamide], the IC50 in assay [7] was 1900 nM; in assay [1], 1800 nM; in assay [2], 1100 nM; in assay [3], 2700 nM; in [4] it was 2700 nM; in assay [5] it was 5300 nM. For the same molecule, the IC50 was determined as 580 nM in assay [8] and 1700 nM in assay [6].
With `COc1ccc(Nc2nccc(-c3sc(NC(=O)CCN4CCN(C)CC4)nc3C)n2)cc1` [Compound 40, N-{5-[2-(4-Methoxy-phenylamino)-pyrimidin-4-yl]-4-methyl-thiazol-2-yl}-3-(4-methyl-piperazin-1-yl)-propionamide], the IC50 in [7] came out at 61000 nM; in assay [1], 7400 nM; in assay [2], 8900 nM; in [3], 4400 nM; in assay [4], 64000 nM; in assay [5], 4300 nM. Further, the figures for the IC50 in assay [8] and in [6] were 14000 nM and 730 nM, respectively.
